Test results reported in PubChem BioAssay (NCI).
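Dose response: 5 concentrations. Exposure: 48 h. Format: 96-well plates. Endpoint: linear interpolation; highest concentration if not reached. Here, GI50 denotes the concentration required for 50% inhibition of growth. TGI is the concentration that stops growth completely.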

Key:
Assay in all cases: growth of human tumour cells (NCI), 48 h
SNB-75 CNS = tested on: SNB-75 CNS
HT29 colon = tested on: HT29 colon
OVCAR-3 ovarian = tested on: OVCAR-3 ovarian
HOP-92 NSCLC = tested on: HOP-92 NSCLC
CCRF-CEM leukemia = tested on: CCRF-CEM leukemia
SW-620 colon = tested on: SW-620 colon
786-0 renal = tested on: 786-0 renal
UO-31 renal = tested on: UO-31 renal
HCT-15 colon = tested on: HCT-15 colon
LOX IMVI melanoma = tested on: LOX IMVI melanoma

Structure (SMILES) | GI50 (SNB-75 CNS) [µM] | TGI (SNB-75 CNS) [µM] | GI50 (HT29 colon) [µM] | TGI (HT29 colon) [µM] | GI50 (OVCAR-3 ovarian) [µM] | TGI (OVCAR-3 ovarian) [µM] | GI50 (HOP-92 NSCLC) [µM] | TGI (HOP-92 NSCLC) [µM] | GI50 (CCRF-CEM leukemia) [µM] | TGI (CCRF-CEM leukemia) [µM] | GI50 (SW-620 colon) [µM] | TGI (SW-620 colon) [µM] | GI50 (786-0 renal) [µM] | TGI (786-0 renal) [µM] | GI50 (UO-31 renal) [µM] | TGI (UO-31 renal) [µM] | GI50 (HCT-15 colon) [µM] | TGI (HCT-15 colon) [µM] | TGI (LOX IMVI melanoma) [µM] | GI50 (LOX IMVI melanoma) [µM]
COc1cc(NC(C)CCCN)c2ncccc2c1Sc1ccc(Cl)cc1 (centres undefined) | 1.7 | 3.42 | 1.9 | 3.5 | 1.77 | 3.28 | 1.37 | 3.48 | 1.77 | 4.96 | 1.61 | 3.08 | 1.89 | 3.57 | 1.59 | 3.19 | 1.89 | 3.67 | – | –
CC(=O)NC1=C(Sc2ccc(Cl)cc2)C(=O)c2ccccc2C1=O | – | – | – | 25.6 | – | 7.07 | – | 5.67 | – | 4.64 | – | 4.01 | – | 4.16 | – | 4.13 | – | 19.1 | 14 | –
Nc1nc(-c2cc(-c3cccc4ccccc34)nc(N)n2)cc(-c2cccc3ccccc23)n1 | – | – | – | > 100 | – | > 100 | – | > 100 | – | > 100 | – | > 100 | – | > 100 | – | > 100 | – | > 100 | > 100 | –
COc1ccc(-c2nnc(Nc3nc(O)c(C4=c5cc(F)ccc5=NC4=O)s3)o2)cc1 | – | – | 40.5 | > 100 | 14.8 | 42.3 | 87 | > 100 | 28.8 | > 100 | 47.6 | > 100 | 23.4 | 56.3 | 37.9 | > 100 | 44.7 | > 100 | > 100 | 40
Cn1c(C(C)(C)OC(=O)Oc2ccccc2)cnc1[N+](=O)[O-] | – | > 100 | – | > 100 | – | > 100 | – | > 100 | – | – | – | > 100 | – | > 100 | – | > 100 | – | > 100 | – | –
Cc1cn2c(/C=N/N=C(N)N)c(-c3ccsc3)nc2s1 | – | – | 18.6 | > 100 | 4.02 | 13.4 | – | – | 2.54 | 6.21 | 5.67 | 23.3 | 5.89 | 19.7 | 25.2 | > 100 | 7.81 | 21.6 | 3.35 | 1.6
Cc1cc(NS(=O)(=O)c2ccc(Nc3c4ccccc4nc4c(C(=O)Nc5ccc(S(=O)(=O)N=C(N)N)cc5)ccc(Cl)c34)cc2)no1 | – | 73.2 | – | > 100 | – | 63.2 | – | – | – | – | – | – | – | > 100 | – | > 100 | – | – | 36.8 | –
CCOC(=O)c1nc2cc(C(F)(F)F)ccc2[n+]([O-])c1C | > 100 | > 100 | > 100 | > 100 | > 100 | > 100 | – | – | 0.159 | 0.533 | > 100 | > 100 | > 100 | > 100 | > 100 | > 100 | > 100 | > 100 | > 100 | > 100
CN1C(=O)C(=CN(C)c2ccccc2)C(=O)N(C)C1=O | – | > 100 | – | – | – | > 100 | – | – | – | > 100 | – | > 100 | – | > 100 | – | > 100 | – | > 100 | > 100 | –
C#CC(=O)OCC#CCOC(=O)C#C | – | – | – | 42.7 | – | 34.7 | – | 34.8 | – | 35.4 | – | 40.6 | – | 31.4 | – | 23.1 | – | 36.5 | 2.63 | –
O=C(Sc1sc(=S)sc1SC(=O)c1ccccc1)c1ccccc1 | – | 78.3 | – | > 100 | – | > 100 | – | > 100 | – | > 100 | – | > 100 | – | > 100 | – | – | – | > 100 | – | –
Cc1ccc(C(=O)N=Nc2c(O)[nH]c3ccc(Cl)cc23)cc1 | 16.6 | > 50 | 19.8 | > 50 | 21.3 | > 50 | – | – | 0.322 | > 50 | 11.4 | 41.4 | > 50 | > 50 | > 50 | > 50 | 18 | > 50 | > 50 | 31.2
COc1ccc(C#CC2=C(c3cc(OC)c(OC)c(OC)c3)C(=O)OC2)cc1 | 1.33 | > 50 | 2.66 | > 50 | 1.59 | 10.3 | – | – | 1.03 | > 50 | – | – | 4.94 | > 50 | 18.9 | > 50 | 1.99 | > 50 | – | –
O=S(=O)(NCCO)c1cc[c]([Sb](=[O])([OH])[OH])cc1 | – | – | > 100 | > 100 | > 100 | > 100 | > 100 | > 100 | – | – | > 100 | > 100 | > 100 | > 100 | > 100 | > 100 | > 100 | > 100 | > 100 | > 100
Cc1cc2c(=O)cc(-c3ccc(F)cc3)oc2c(C(=O)O)c1C | – | > 100 | – | > 100 | – | > 100 | – | – | – | > 100 | – | > 100 | – | > 100 | – | > 100 | – | > 100 | > 100 | –
